Biological target: Human immunodeficiency virus type 1 protease (Human immunodeficiency virus 1, UniProt Q72874)
Experiment: Compound was tested for the inhibitory activity against HIV-protease

Compound	Ki
O=C1N[C@H](CCc2ccccc2)[C@@H](O)[C@@H](Cc2ccccc2)N1Cc1ccccc1	0.066 µM
O=C1N(Cc2ccccc2)C[C@H](O)[C@@H](Cc2ccccc2)N1Cc1ccccc1	11 µM
O=C1[C@@H](Cc2ccccc2)C[C@@H](O)[C@@H](Cc2ccccc2)N1Cc1ccccc1	9.4 µM
O=C1N(Cc2ccccc2)C[C@@H](O)[C@@H](Cc2ccccc2)N1Cc1ccccc1	0.0025 µM

Source: ChEMBL document CHEMBL1129849, “Synthesis and evaluation of delta lactams as nonpeptide HIV-protease inhibitors” (Bioorg Med Chem Lett, 1997)
